Experimental data as given in patent publication US9763995B2, “Polymer conjugates of protegrin peptides” (Nektar Therapeutics, priority 2008, dated 2017).

Assays:
[1] = system: rat red blood cells; assay: Hemolysis assay; assay type: cell-based
Experimental: Hemolysis assay. Approximately 10 mL of blood was drawn from one adult rat into Na Heparin tube and kept in ice until use. Red blood cells were washed three times with 10 mL of cold DPBS ((−) CaCl2 and (−) MgCl2) and collected by sequential centrifugation at 3,000 g for 5 min at 4° C. Pellets of red blood cells were resuspended with DPBS ((−) CaCl2 and (−) MgCl2) and the total volume was brought up to initial volume of blood drawn. One mL of resuspended red blood cells was resuspended with 49 mL of DPBS ((−) CaCl2 and (−) MgCl2). Incubation mixture was prepared by 400 fold dilution of stock solution of test compounds with final volume of 800 μl. Final concentration of test compounds was equimolar to that of respective unconjugated compounds. Hemolysis incubation was done at 37° C. with mild agitation. For releasable conjugates, test compounds were preincubated in 1×PBS at 37° C. prior to hemolysis assay. Incubation mixture was centrifuged at 3,000 g for 5 min at 4° C., and the absorbance at 550 nm was read from supernatant. […] [table]

[2] = Pharmacokinetic studies of the protegrin conjugates, single IV dose; assay type: in vivo, Sprague-Dawley rats; conditions: equivalent protein mass 1.6 mg/kg IV
Experimental: Twenty one (21) adult male Sprague-Dawley rats with indwelling jugular vein and carotid artery catheters (JVC/CAC) (Charles River Labs, Hollister, Calif.) were utilized for this study. The weight range of the animals was 313-346 grams. All animals were food fasted overnight. Prior to dosing the rats were weighed, the tails and cage cards were labeled for identification and the doses were calculated. Anesthesia was induced and maintained with 3.0-5.0% isoflurane. The JVC and CAC were externalized, flushed with HEP/saline (10 IU/mL HEP/mL saline), plugged, and labeled to identify the jugular vein and carotid artery The predose sample was collected from the JVC. […] Following the last collection point, the animals were euthanized. Bioanalytical analysis: analysis of the plasma samples was conducted using non-validated LC-MS/MS methods. Noncompartmental PK data analysis and report preparation was completed. PK analysis was performed using WinNonlin (Version 5.2, Mountain View, Calif.-94014). Concentrations in plasma that were below LLOQ were replaced with zeros prior to generating Tables and PK analysis. The following PK parameters were estimated using plasma concentration-time profile of each animal: • C0 Extrapolated concentration to time “zero” • Cmax Maximum (peak) concentration • AUCall Area under the concentration-time from zero to time of last concentration value • T1/2(Z) Terminal elimination half-life • AUCinf Area under the concentration-time from zero to time infinity • Tmax Time to reach maximum or peak concentration following administration • CL Total body clearance • Vz Volume of distribution based on terminal phase • Vss Volume of distribution at steady state • MRTlast Mean residence time to last observable concentration

[3] = non-releasable PEG conjugates, Sprague Dawley rats, Mean ± SD
[4] = protegrin-1 in plasma, rats, native or via releasable PEG conjugate

CC(C)C[C@H](NC(=O)[C@H](CCCNC(=N)N)NC(=O)CNC(=O)CNC(=O)[C@@H](N)CCCNC(=N)N)C(=O)N[C@H]1CSSC[C@@H](C(=O)N[C@H](C(=O)NCC(=O)N[C@@H](CCCNC(=N)N)C(N)=O)C(C)C)NC(=O)[C@H](C(C)C)NC(=O)[C@@H]2CSSC[C@H](NC(=O)[C@H](Cc3ccc(O)cc3)NC1=O)C(=O)N[C@@H](CCCNC(=N)N)C(=O)N[C@@H](CCCNC(=N)N)C(=O)N[C@@H](CCCNC(=N)N)C(=O)N[C@@H](Cc1ccccc1)C(=O)N2 [Protegrin-1]
hemolytic effects / hemolytic activity ([1]; rat red blood cells, 37° C., relative to 100% hemolysis by 0.25% Triton X-100, releasable conjugates preincubated in 1XPBS at 37° C.): comparable to literature data
hemolytic activity retained compared to PG1 preincubated for 0 hr ([1]; red cells of rat, 96 h): about 60%
Tmax ([2]; male, Sprague-Dawley, rat, in vivo, protegrin-1 in plasma, rats, native or via releasable PEG conjugate): 1.8 min
AUCINF [2, 3]: 1160 ± 351 ng·h/mL
CL [2, 3]: 1470 ± 434^ mL/hr/kg
Cmax [2, 3]: 2050 ± 601 ng/mL
MRTlast [2, 3]: 31.2 ± 3 min
T1/2 [2, 3]: 21 ± 6 min
Vss [2, 3]: 0.848 ± 0.36 L/kg
AUCINF [2, 4]: 1160 ng·h/mL
Cmax [2, 4]: 2050 ng/mL
MRTlast [2, 4]: 31.2 min
T1/2 [2, 4]: 21 min
